Test results from US10064858B2, “Methods and compositions for treating bacterial infections with iron chelators” (THE UNITED STATES OF AMERICA, AS REPRESENTED BY THE …, priority 2011, dated 2018).
In brackets after ≈: the same amount, converted by molar mass. Read-outs that look alike come from different tables or passages of the source.

Tests used:
[1] = system: Acinetobacter baumannii; assay: Growth (OD600) with VK28 in M9 media with magnesium / calcium; assay type: cell-based; settings: 24 hours
Description: Acinetobacter baumannii was grown similar to as described in Example 21 in M9 media containing 2 mM MgSO4 for 24 hours in the presence of 0 μg/ml, 50 μg/ml, 100 μg/ml, or 200 μg/ml VK28. The OD600 was measured at 0, 4, and 24 hour and the results are shown in the time-kill curves of FIG. 19.
(§1) In this example, strains of MR Staphylococcus aureus (MRSA), Acinetobacter baumannii (Acinetobacter), Escherichia coli (E. coli), and Pseudomonas aeruginosa (Pseudomonas) were grown in M9 media in the presence of 2 mM MgSO4 and 1.35 mM CaCl2 for 24 hours in the presence or absence of 0 μg/ml, 50 μg/ml, 100 μg/ml, or 200 μg/ml of VK28. The OD600 was measured at 24 hour and the results are shown in the bar graph of FIG. 21.

[2] = system: A. baumannii; assay: Growth (OD600) with VK28 added at different times post-inoculation; assay type: cell-based; settings: 200 μM VK28 added at 0, 4, 8, 12, 16, 20 hr post-inoculation; low-iron M9
Description: A. baumannii was grown in low-iron M9 media and challenged with 200 μM VK28 at 0 hr (▪), 4 hr (▴), 8 hr (▪), 12 hr (▪), 16 hr (•), and 20 hr (▪) post-inoculation. Growth was estimated by absorbance at 600 nm every 4 hr for 24 hr.

[3] = system: Methicillin-Resistant Staphylococcus aureus (MRSA); assay: Growth (OD600) of MDR bacteria with VK28 in low-iron M9 media; assay type: cell-based; settings: both 100 μM and 200 μM VK28
Description: (§2) Isolates of Extended Spectrum Beta-Lactamase (ESBL) Escherichia coli, Klebsiella pneumoniae, Pseudomonas aeruginosa, and Methicillin-Resistant Staphylococcus aureus (MRSA) were challenged with either 0 μM, 100 μM or 200 μM VK28 in low-iron M9 media after 4 hr of growth. Growth was estimated by absorbance at 600 nm at 24 hr post inoculation.

[4] = system: Klebsiella pneumoniae; assay: as above; assay type: cell-based; settings: 200 μM VK28
Description: as §2

[5] = system: Pseudomonas aeruginosa; assay: as above; assay type: cell-based; settings: 200 μM VK28
Description: as §2

[6] = system: Extended Spectrum Beta-Lactamase (ESBL) Escherichia coli; assay: as above; assay type: cell-based; settings: 200 μM VK28
Description: as §2

[7] = system: Tetracycline-resistant A. baumannii; assay: Growth (OD600) with VK28, tetracycline or both; assay type: cell-based
Source text: Growth was estimated by absorbance at 600 nm at 24 hr. (y-axis).

[8] = system: S. aureus; assay: MIC in RPMI1640 media (Table 2); assay type: cell-based; settings: Staphylococcus aureus
Description: (§3) Individual MICs were determined following the microdilution method recommended by CLSI in cationic-adjusted Mueller-Hinton Broth (CAMHB), or M9 media. […] Tests were performed in triplicate. MIC of iron chelators were determined for noscomial ESKAPE pathogens.
This media is closer to the iron levels in the human body. MICs are in ug/mL.

[9] = system: MR Staphylococcus aureus (MRSA); assay: Growth (OD600) with VK28 in M9 media with magnesium and calcium; assay type: cell-based; settings: M9 with 2 mM MgSO4 and 1.35 mM CaCl2; 24 hours
Description: as §1

[10] = Maximum systemic dose without adverse side-effects, extrapolated; settings: human; systemic delivery; based on mouse and rat results
Description: The iron chelator is employed in an amount effective for the treatment and/or prevention of bacterial infection. The effective dosage seen in vitro is up to 2 mM based on molarity or up to 1 mg/mL. 2 mM or 1 mg/mL is an extremely high dosage for translating into in vivo. Previous experiments by Varinel Inc. have shown toxicity with VK28 at 30 mg/kg in a mouse or 70 mg/kg in a rat when delivered systemically/intravenously. […] Higher doses are suitable for topical administration. The iron chelator can present in an amount that is up to about 10% by weight, alternatively up to about 20% by weight of the topical composition. In some embodiments, the topical composition can comprise about 0.1% to about 20% of at least one iron chelator, alternatively about 1% to about 20%, alternatively about 5% to about 20%, alternatively about 5% to about 10%, and include, but are not limited to, for example, about 1%, about 2%, about 3%, about 4%, about 5%, about 6%, about 7%, about 8%, about 9%, about 10%, about 12%, about 15%, about 20%, and includes percentages and ranges there between and in increments of about 0.1%, about 0.25%, about 0.5%, about 1% and the like. Determination of an effective amount of VK28, or derivative thereof, to employ is well within the skill of one having ordinary skill in the art having knowledge of the teachings set forth herein.

[11] = system: five clinical isolates of A. baumannii and AB19606; assay: Growth (OD600) of six A. baumannii strains with VK28 in low-iron M9 media; assay type: cell-based; settings: 200 μM VK28 after 4 hr of growth, 24 hr
Description: Five clinical isolates of A. baumannii were obtained from Walter Reed Army Medical Center (WRAMC) and compared to the laboratory strain AB19606 from the ATCC. Strains were challenged with either 0 μM or 200 μM VK28 in low-iron M9 media after 4 hr of growth. Growth was estimated by absorbance at 600 nm every 4 hr for 24 hr. Dashed lines represent the same strains treated with 200 μM VK28.

[12] = system: WBA 2090 E. faecilium; assay: MIC, similar assays; assay type: cell-based
Description: as §3

| SMILES | inhibition of growth (OD600) ([1]; M9 with 2 mM MgSO4, 50-200 μg/ml VK28) | inhibition of growth (OD600) ([1]; M9 with 2 mM MgSO4 and 1.35 mM CaCl2) | continued multiplication of bacteria (OD600) [2] | OD600 at 24 hr post inoculation [3] | growth (OD600) at 24 hr post inoculation [4] | OD600 at 24 hr post inoculation [5] | growth (OD600) at 24 hr post inoculation [6] | reduction of bacteria (absorbance at 600 nm at 24 hr) ([7]; 400 μM Vk28 in combination with 16 ug/mL tetracycline) | reduction of bacteria (absorbance at 600 nm at 24 hr) ([7]; single agent: 400 μM Vk28 or 16 ug/mL tetracycline, low-iron M9) | MIC ([8]; ATCC25923, ATCC 25923, read-out: MIC of Iron Chelators) [µg/mL] | MIC ([8]; ATCC 43300 (MRSA), read-out: MIC of Iron Chelators) [µg/mL] | inhibition of growth (OD600) [9] | maximum dose without adverse side-effects [10] | OD600 values (growth) [11] | MIC [12] [µg/mL] |
| --- | --- | --- | --- | --- | --- | --- | --- | --- | --- | --- | --- | --- | --- | --- | --- |
| OCCN1CCN(Cc2ccc(O)c3ncccc23)CC1 [VK28, 5-(4-(2-hydroxyethyl)piperazin-1-ylmethyl)-8-hydroxyquinoline] | inhibition of growth of Acinetobacter baumannii is not reduced in the presence of magnesium | inhibition of growth of a number of strains of bacteria is not reduced in the presence of magnesium and calcium | effective to halt the continued multiplication of bacteria | significantly reduced | reduced | significantly reduced | reduced | the reduction in bacteria was greater than the added reductions from separate administration of tetracycline and VK28 | significant reduction in bacteria | 32 | 16 | inhibition of growth of a number of strains of bacteria is not reduced in the presence of magnesium and calcium | approximately 60 mg/kg | greatly decreases the OD600 values |  |
| Cc1c(O)c(=O)ccn1C [ApoL1, 3-hydroxy-1,2-dimethyl-4(1H)-pyridone] |  |  |  |  |  |  |  |  |  |  |  |  |  |  | 600 to 700 (≈ 4.31 to 5.03 mM) |
